Experimental data reported in paper PMC9440176, “Novel benzylidene benzofuranone analogues as potential anticancer agents: design, synthesis and in vitro evaluation based on CDK2 inhibition assays” (3 Biotech, 2022).

Columns and labels:
Assay type in all cases: cell-based, Human
[1] = test system: HCT 116 cells; assay: Apoptotic DNA fragmentation study
Experimental: Cells were seeded at a concentration of 1 × 10^6 per 35 mm dish and incubated at 37 °C/5% CO2 for 24 h. The confluent cells grown after 24 h of incubation were treated with sample concentrations at 10 μg/ml, 20 μg/ml and control (without sample). After the treatment, cells were trypsinized and both the adherent as well as floating cells were collected by centrifugation at 2000 rpm for 5 min. The cell pellet was later suspended in 0.5 ml lysis buffer (pH 7.8) [Tris–HCl 10 mM, pH 8; EDTA 20 mM, pH 8.0; TritonX-100 0.2% and 4 M NaCl], vortexed vigorously and incubated at 50 °C for 5 min. To the lysate, 0.5 ml of phenol: chloroform: isoamylalcohol was added and mixed for about 2–3 min. Further, it was centrifuged at 10,000 rpm for 15 min at 4 °C.The upper aqueous layer was taken in another tube to which, twice the volume of cold 100% ethanol was added along with 3 M sodium acetate (Final concentration of sodium acetate 0.3 M). It was incubated for 5–10 min at room temperature. Further, centrifuged again at 10,000 rpm for 20 min. After removing the supernatant, the DNA pellet was washed in 70% ethanol and centrifuged at 5000 rpm for the next 10 min. The supernatant was removed, the DNA pellet was air dried and was finally dissolved in TE buffer (Tris–HCl 10 mM, pH 7.4, EDTA 1 mM, pH 8.0) and separated by 2% agarose gel electrophoresis at 100 V for 50 min.

[2] = test system: HCT 116 cell lines; assay: Cell cycle analysis (PI, FACS); conditions: 24 h
Experimental: The cell cycle analysis was followed where 1 × 10^6 cells were seeded and cultured for 24 h in a 6-well plate containing 2 ml of the media. Cells were then treated with desired concentrations of the given samples that were prepared in media and further incubated for another 24 h. Cells were then harvested and centrifuged at 2000 rpm for 5 min at room temperature and the supernatant was discarded carefully retaining the cell pellet. Cell pellet was then washed by resuspending in 2 ml of 1XPBS. The washing was repeated another time under the same conditions. Further, the supernatant was discarded retaining the pellet. Cells were then fixed by resuspending in 300 µL of Sheath fluid followed by the addition of 1 ml of chilled 70% ethanol drop by drop gently with continuous shaking and one more mL of the same at once. The cells were then stored at 4 °C overnight. Post fixing, the cells were centrifuged at 2000 rpm for 5 min washed twice with 2 ml of cold 1XPBS and suspended in 450 µL of sheath fluid containing 0.05 mg/ml PI (Propidium iodide), 0.05 mg/ml RNase A and incubated for 15 min in the dark (Kasibhatla et al. [2006]).The percentage of cells in various stages of cell cycle both in the treated as well as un-treated populations was determined using FACS Caliber (BD Biosciences, San Jose, CA).

[3] = test system: CDK2 gene expression in HCT 116 cell lines; assay: Semi-quantitative RT-PCR gene expression of CDK2; conditions: for Relative gene expression of CDK2: control 1.00
Experimental: (§1) HCT-116 cells were trypsinized and added to 1 ml TRIzol and vortexed. Samples were then allowed to stand for 5 min at room temperature. 0.2 ml of chloroform per 1 ml of TRIzol was added. The tube was later stoppered and shaken vigorously for 15 s and was allowed to stand at room temperature for 5 min. The resulting mixture was then centrifuged at 10,000×rpm for 15 min at […]. The upper aqueous phase was transferred to another clean tube followed by the addition of 0.5 ml of isopropanol per 1 ml of TRIzol. The contents were mixed gently by inverting the sample 5 times and incubated at room temperature for 5 min. Further, the tubes were centrifuged at 10,000×rpm for the next 10 min at […]. Later, the supernatant was discarded and the RNA pellet was washed by adding 1 ml of 70% ethanol. Further, the contents were mixed gently by inverting the sample for few times. It was again centrifuged for 5 min at 14,000×rpm at […]. In the later step, the supernatant was discarded by inverting the tube on a clean tissue paper. Later, the pellet was dried by incubating in a […] for 5 min at 55 °C. The pellet was then resuspended in 25 µL of DEPC (Diethyl pyro carbonate) treated water.
(§2) A semi-quantitative reverse transcriptase polymerase chain reaction (RT-PCR) was carried out using Techno Prime system to determine the levels of β-actin and CDK-2 and CyclinA mRNA expression. The cDNA was synthesized from 2 µg of RNA using the Verso cDNA synthesis kit (Thermo Fischer Scientific) with oligo dT (deoxy thymine) primer according to the manufacturer’s instructions. The reaction volume was set to 20 μL and the cDNA synthesis was performed at 42 °C for 60 min followed by RT inactivation at 85 °C for 5 min (Murakami [1996]).
(§3) The PCR mixture (final volume of 20 µL) contains 1 µL of cDNA, 10 µL of Red Taq Master Mix 2× (Ampliqon) and 1 µM of each complementary primer specific for CDK2 and CyclinA and β-actin (internal control) sequence. The samples are denatured at 95 °C for 5 min and amplified using 35 cycles of 95 °C for 30 s then again at 55 °C for 30 s and 72 °C for 1 min for β-actin; the […] annealing was finally set to 56 °C followed by the final elongation at 72 °C for 10 min. […] Ten microliters of the final amplification product are run on a 2% ethidium-stained agarose gel and photographed. Quantification of the results could be accomplished by measuring the optical density of the bands, using the computerized imaging program Image J. The values were normalized to β-actin intensity levels (Bookout and Mangelsdorf [2003]).

[4] = test system: Cyclin A gene expression in HCT 116 cell lines; assay: Semi-quantitative RT-PCR gene expression of Cyclin A; conditions: for CyclinA expression profile (in words): HCT 116; for Relative gene expression of Cyclin A: control 1.00
Experimental: as §1, §2, §3

COc1ccc(/C=C2\Oc3c(c(OC)cc(OC)c3C3=CCN(C(C)C)CC3)C2=O)cc1OC [NISOA4]
DNA fragmentation on agarose gel ([1]; 12.5 μM): smearing | DNA fragmentation on agarose gel ([1]; 25 μM): fragmentation in the form of DNA laddering | percentage cell population GO/G1 phase ([2]; high concentration (25)): 57.97% | percentage cell population G2/M phase ([2]; low concentration (12.5)): 17.30% | percentage cell population GO/G1 phase ([2]; low concentration (12.5)): 70.84% | percentage cell population S phase ([2]; low concentration (12.5)): 10.61% | Band intensity of PCR amplicon of genes, CDK2 ([3]; 12.5 μM): 16,091.61 | Normalized (CDK2 to β-actin) ([3]; 12.5 μM): 0.63 | expression of CDK2 (in words) ([3]; 12.5 μM and 25 μM, HCT 116): clear dose-dependent decrease | Relative gene expression of CDK2 ([3]; 12.5 μM): 0.59 | Band intensity of PCR amplicon of genes, CDK2 ([3]; 25 μM): 13,190.418 | Normalized (CDK2 to β-actin) ([3]; 25 μM): 0.52 | Relative gene expression of CDK2 ([3]; 25 μM): 0.49 | Band intensity Of PCR Amplicon Of genes, Cyclin A ([4]; 12.5 μM): 16,245.903 | Normalized (Cyclin A to β-actin) ([4]; 12.5 μM): 0.64 | CyclinA expression profile (in words) ([4]; 12.5 μM): very little or no reduction | Relative gene expression of Cyclin A ([4]; 12.5 μM): 1.00 | Band intensity Of PCR Amplicon Of genes, Cyclin A ([4]; 25 μM): 10,798.368 | Normalized (Cyclin A to β-actin) ([4]; 25 μM): 0.43 | CyclinA expression profile (in words) ([4]; 25 μM): clear decrease | Relative gene expression of Cyclin A ([4]; 25 μM): 0.67
